According to the supplement of paper PMC10307832:

What was measured:
Test in all cases: relative viability (nuclei count vs DMSO), 5 days (fraction); higher = more cells survive
PC-14 = test system: PC-14
Method in brief: (§1)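 One day after seeding in 1536-well plates, lung cancer cell lines were dosed by pin tool. Dosing was either single-drug or a fixed anchor-drug dose plus five library-drug doses (not always all listed) in √10 steps. After 5 days, nuclei were stained in one fix-and-stain step and counted on 4× images, and relative viability is the nuclei count of treated wells over that of vehicle wells, given as the median of duplicate plates.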

EMC-BAC-2 = test system: EMC-BAC-2
Method in brief: as §1

201T = test system: 201T
Method in brief: as §1

NCI-H596 = test system: NCI-H596
Method in brief: as §1

NCI-H322M = test system: NCI-H322M
Method in brief: as §1

NCI-H2087 = test system: NCI-H2087
Method in brief: as §1

H3255 = test system: H3255
Method in brief: as §1

NCI-H2170 = test system: NCI-H2170
Method in brief: as §1

NCI-H2126 = test system: NCI-H2126
Method in brief: as §1

SK-MES-1 = test system: SK-MES-1
Method in brief: as §1

NCI-H441 = test system: NCI-H441
Method in brief: as §1

LXF-289 = test system: LXF-289
Method in brief: as §1

NCI-H1651 = test system: NCI-H1651
Method in brief: as §1

NCI-H2009 = test system: NCI-H2009
Method in brief: as §1

NCI-H647 = test system: NCI-H647
Method in brief: as §1

CAL-12T = test system: CAL-12T
Method in brief: as §1

ChaGo-K-1 = test system: ChaGo-K-1
Method in brief: as §1

NCI-H3122 = test system: NCI-H3122
Method in brief: as §1

NCI-H1755 = test system: NCI-H1755
Method in brief: as §1

HOP-62 = test system: HOP-62
Method in brief: as §1

LK-2 = test system: LK-2
Method in brief: as §1

NCI-H1734 = test system: NCI-H1734
Method in brief: as §1

**Q.** What does the source list for `O=c1[nH]c2ccccc2n1C1CCN(CCCC(c2ccc(F)cc2)c2ccc(F)cc2)CC1` [Pimozide] + CC1(C)CCC(c2ccc(Cl)cc2)=C(CN2CCN(c3ccc(C(=O)NS(=O)(=O)c4ccc(N[C@H](CCN5CCOCC5)CSc5ccccc5)c(S(=O)(=O)C(F)(F)F)c4)cc3)CC2)C1 [Navitoclax] (partner 0.5 µM)?
**A.** relative viability (PC-14; first compound 0.08 µM): 1.04; relative viability (PC-14; first compound 0.253 µM): 1; relative viability (PC-14; first compound 0.8 µM): 0.99; relative viability (PC-14; first compound 2.53 µM): 1.09; relative viability (PC-14; first compound 8 µM): 0.967; relative viability (EMC-BAC-2; first compound 0.08 µM): 1.09; relative viability (EMC-BAC-2; first compound 0.253 µM): 1.11; relative viability (EMC-BAC-2; first compound 0.8 µM): 1.05; relative viability (EMC-BAC-2; first compound 2.53 µM): 1.06; relative viability (EMC-BAC-2; first compound 8 µM): 1.07; relative viability (201T; first compound 0.08 µM): 1.19; relative viability (201T; first compound 0.253 µM): 1.25; relative viability (201T; first compound 0.8 µM): 1.19; relative viability (201T; first compound 2.53 µM): 1.18; relative viability (201T; first compound 8 µM): 1.15; relative viability (NCI-H596; first compound 0.08 µM): 0.92; relative viability (NCI-H596; first compound 0.253 µM): 0.963; relative viability (NCI-H596; first compound 0.8 µM): 0.94; relative viability (NCI-H596; first compound 2.53 µM): 0.677; relative viability (NCI-H596; first compound 8 µM): 0.9; relative viability (NCI-H322M; first compound 0.253 µM): 1.21; relative viability (NCI-H322M; first compound 0.8 µM): 1.14; relative viability (NCI-H322M; first compound 2.53 µM): 1.21; relative viability (NCI-H322M; first compound 8 µM): 1.11; relative viability (NCI-H2087; first compound 0.08 µM): 0.972; relative viability (NCI-H2087; first compound 0.253 µM): 0.98; relative viability (NCI-H2087; first compound 0.8 µM): 0.878; relative viability (NCI-H2087; first compound 2.53 µM): 0.997; relative viability (NCI-H2087; first compound 8 µM): 0.931; relative viability (H3255; first compound 0.253 µM): 0.555; relative viability (H3255; first compound 0.8 µM): 0.549; relative viability (H3255; first compound 2.53 µM): 0.551; relative viability (H3255; first compound 8 µM): 0.506; relative viability (NCI-H2170; first compound 0.08 µM): 0.526; relative viability (NCI-H2170; first compound 0.253 µM): 0.703; relative viability (NCI-H2170; first compound 0.8 µM): 0.596; relative viability (NCI-H2170; first compound 2.53 µM): 0.571; relative viability (NCI-H2170; first compound 8 µM): 0.585; relative viability (NCI-H2126; first compound 0.08 µM): 0.835; relative viability (NCI-H2126; first compound 0.253 µM): 0.827; relative viability (NCI-H2126; first compound 0.8 µM): 0.841; relative viability (NCI-H2126; first compound 2.53 µM): 0.824; relative viability (NCI-H2126; first compound 8 µM): 0.868; relative viability (SK-MES-1; first compound 0.08 µM): 1.31; relative viability (SK-MES-1; first compound 0.253 µM): 1.25; relative viability (SK-MES-1; first compound 0.8 µM): 1.18; relative viability (SK-MES-1; first compound 2.53 µM): 1.21; relative viability (SK-MES-1; first compound 8 µM): 1.08; relative viability (NCI-H441; first compound 0.08 µM): 0.685; relative viability (NCI-H441; first compound 0.253 µM): 0.697; relative viability (NCI-H441; first compound 0.8 µM): 0.75; relative viability (NCI-H441; first compound 2.53 µM): 0.487; relative viability (NCI-H441; first compound 8 µM): 0.346; relative viability (LXF-289; first compound 0.08 µM): 0.9; relative viability (LXF-289; first compound 0.253 µM): 0.93; relative viability (LXF-289; first compound 0.8 µM): 0.91; relative viability (LXF-289; first compound 2.53 µM): 0.896; relative viability (LXF-289; first compound 8 µM): 0.84; relative viability (NCI-H1651; first compound 0.08 µM): 0.953; relative viability (NCI-H1651; first compound 0.253 µM): 1.06; relative viability (NCI-H1651; first compound 0.8 µM): 1.07; relative viability (NCI-H1651; first compound 2.53 µM): 1.11; relative viability (NCI-H1651; first compound 8 µM): 0.992; relative viability (NCI-H2009; first compound 0.08 µM): 1.2; relative viability (NCI-H2009; first compound 0.253 µM): 1.14; relative viability (NCI-H2009; first compound 0.8 µM): 1.13; relative viability (NCI-H2009; first compound 2.53 µM): 1.2; relative viability (NCI-H2009; first compound 8 µM): 1.01; relative viability (NCI-H647; first compound 0.08 µM): 1.17; relative viability (NCI-H647; first compound 0.253 µM): 1.14; relative viability (NCI-H647; first compound 0.8 µM): 0.91; relative viability (NCI-H647; first compound 2.53 µM): 0.954; relative viability (NCI-H647; first compound 8 µM): 0.837; relative viability (CAL-12T; first compound 0.08 µM): 1.35; relative viability (CAL-12T; first compound 0.253 µM): 1.23; relative viability (CAL-12T; first compound 0.8 µM): 1.23; relative viability (CAL-12T; first compound 2.53 µM): 0.977; relative viability (CAL-12T; first compound 8 µM): 1.08; relative viability (ChaGo-K-1; first compound 0.08 µM): 0.861; relative viability (ChaGo-K-1; first compound 0.253 µM): 0.935; relative viability (ChaGo-K-1; first compound 0.8 µM): 0.974; relative viability (ChaGo-K-1; first compound 2.53 µM): 1.01; relative viability (ChaGo-K-1; first compound 8 µM): 0.941; relative viability (NCI-H3122; first compound 0.08 µM): 0.987; relative viability (NCI-H3122; first compound 0.253 µM): 1.06; relative viability (NCI-H3122; first compound 0.8 µM): 1.04; relative viability (NCI-H3122; first compound 2.53 µM): 0.982; relative viability (NCI-H3122; first compound 8 µM): 0.957; relative viability (NCI-H1755; first compound 0.08 µM): 0.963; relative viability (NCI-H1755; first compound 0.253 µM): 0.941; relative viability (NCI-H1755; first compound 0.8 µM): 0.969; relative viability (NCI-H1755; first compound 2.53 µM): 0.882; relative viability (NCI-H1755; first compound 8 µM): 0.771; relative viability (HOP-62; first compound 0.08 µM): 1.11; relative viability (HOP-62; first compound 0.253 µM): 0.851; relative viability (HOP-62; first compound 0.8 µM): 0.812; relative viability (HOP-62; first compound 2.53 µM): 1.03; relative viability (HOP-62; first compound 8 µM): 0.903; relative viability (LK-2; first compound 0.08 µM): 0.818; relative viability (LK-2; first compound 0.253 µM): 0.724; relative viability (LK-2; first compound 0.8 µM): 0.811; relative viability (LK-2; first compound 2.53 µM): 0.721; relative viability (LK-2; first compound 8 µM): 1.05; relative viability (NCI-H1734; first compound 0.08 µM): 0.894; relative viability (NCI-H1734; first compound 0.253 µM): 0.806; relative viability (NCI-H1734; first compound 0.8 µM): 0.764; relative viability (NCI-H1734; first compound 2.53 µM): 0.83; relative viability (NCI-H1734; first compound 8 µM): 0.836
